Converted amounts (≈) assume the structure as drawn. Read-outs that look alike come from different tables or passages of the source.
Legend:
[1] = tested on: HIV-1 (HTLV-IIIB); assay: microbe, parasite or virus in culture; format: cell-based; conditions: for EC50: Human immunodeficiency virus 1, MT4, 120 h, read-out: ED₅₀; for SI: Selectivity Index, ratio of CD₅₀ to ED₅₀, HIV-1, 7200 min
Experimental: (§1) The compounds of the invention were tested in a screen by the MTT method (J. Virol. Methods 120: 309-321 [1988]). MT-4 cells (2.5 x 10⁴ /well) were infected with HIV-1 (HTLV-IIIB) or HIV-2 (LAV-2 ROD) at a concentration of 100 CCID₅₀ and incubated in the presence of various concentrations of the test compounds, which were added immediately after infection with the virus. After 5 days culture at 37°C in a CO₂ incubator, the number of viable cells was assessed by the MTT (tetrazolium) method. […] The potential therapeutic usefulness was assessed by calculating a Selectivity Index (SI) corresponding to the ratio of CD₅₀ to ED₅₀. A control test was performed using the known anti-HIV treatment AZT.

[2] = Cytotoxicity by MTT method in MT-4 cells; format: cell-based, human; conditions: human, mt-4 cells, read-out: CD₅₀
Experimental: as §1

[3] = tested on: HIV-2 (LAV-2 ROD); assay: MTT method anti-HIV screen in MT-4 cells infected with HIV-2; format: cell-based; conditions: for EC50: Human immunodeficiency virus 2, MT4, 120 h, read-out: ED₅₀; for EC50 / ED₅₀: antiviral activity, MT-4 cells infected with HIV-2 (LAV-2 ROD) at 100 CCID₅₀, 5 days; for SI: Selectivity Index, ratio of CD₅₀ to ED₅₀, HIV-2, 7200 min
Experimental: as §1

[4] = tested on: MT-4 cells; assay: Cytotoxicity by MTT method in MT-4 cells; format: cell-based, human
Experimental: as §1

[5] = antiviral activity, MT-4 cells infected with HIV-1 (HTLV-IIIB) at 100 CCID₅₀, 5 days

Compound | EC50 [1] | SI [1] | CC50 at 120 h ([2]; HIV-1, 5 days culture at 37°C) | EC50 [1, 5] | EC50 [3] | SI [3] | CC50 at 120 h ([2]; HIV-2, 5 days culture at 37°C) | ED₅₀ [1, 5] | ED₅₀ [3] | CD₅₀ ([4]; HIV-1, 5 days culture at 37°C) | CD₅₀ ([4]; HIV-2, 5 days culture at 37°C)
Cc1cn([C@H]2C[C@H](N=[N+]=[N-])[C@@H](CO)O2)c(=O)[nH]c1=O [AZT, reference compound] | < 0.008 µg/mL | >125 | > 1 µg/mL |  |  |  |  |  |  |  | 
C1CNCCCNCCNCCCNC1 [B, 1,4,8,12-tetrazacyclopentadecane] |  | 15 | 460 µg/mL (≈ 2140 µM) | 30.3 µg/mL (≈ 141 µM) | 40.4 µg/mL (≈ 188 µM) | 12 | 487 µg/mL (≈ 2270 µM) |  |  |  | 
C1CCNCCCNCCNCCCNC1 [C, 1,4,8,13-tetrazacyclohexadecane. 4HCl] |  | 18 | 334 µg/mL | 18.8 µg/mL | > 500 µg/mL | <1 | 341 µg/mL |  |  |  | 
C1CNCCCNCCCNCCCNC1 [D, 1,5,9,13-tetrazacyclohexadecane] |  | 37 | 11.2 µg/mL (≈ 49 µM) | 0.3 µg/mL (≈ 1.31 µM) | > 40 µg/mL | <1 | 20.5 µg/mL (≈ 89.8 µM) |  |  |  | 
C1CCNCCCNCCCNCCCNC1 [E, 1,5,9,14-tetrazacycloheptadecane] |  | 3 | 3.35 µg/mL (≈ 13.8 µM) | 1.3 µg/mL (≈ 5.36 µM) | > 8 µg/mL | <1 | 5.06 µg/mL (≈ 20.9 µM) |  |  |  | 
C1CNCCNCCNCCNCCN1 [F, 1,4,7,10,13-pentazacyclopentadecane] |  | <1 | 3.36 µg/mL (≈ 15.6 µM) | > 8 µg/mL | > 8 µg/mL | <1 | 6.03 µg/mL (≈ 28 µM) |  |  |  | 
CC1CC(C)(C)NCCNC(C)CC(C)(C)NCCN1 (stereo not shown) [I, 5,5,7,12,12,14-hexamethyl-cyclam] |  | 2 | 432 µg/mL (≈ 1520 µM) | 197 µg/mL (≈ 692 µM) | > 1000 µg/mL | <1 | 419 µg/mL (≈ 1470 µM) |  |  |  | 
Zn complex of 1,4,8,12-tetrazacyclopentadecane (Cl⁻) [G] |  |  |  |  |  |  |  | 6.96 µg/mL | >1000.0 µg/mL | 194.2 µg/mL | 218.3 µg/mL
Zn complex of 1,5,9,13-tetrazacyclohexaadecane (Cl⁻) [Compound H] |  |  |  |  |  |  |  | 10.6 µg/mL | >100.0 µg/mL | 46.9 µg/mL | 46.9 µg/mL
[Cu cyclam]Cl₂ [X, reference compound] |  |  |  |  |  |  |  | >250 µg/mL |  |  | 
c-[Rh cyclam (NO₂)₂]Cl [reference compound] |  |  |  |  |  |  |  | >250 µg/mL |  |  | 

Source: EP0392666A2, “Anti-HIV compositions” (JOHNSON MATTHEY PUBLIC LIMITED COMPANY, priority 1989, dated 1990)
